Columns and labels:
[1] = test system: p62, BMPR2, LC3B-II, p21, p65, phospho-AKT, phospho-p65 in right lung; assay: SU5416/hypoxia model, western blot of right lung homogenate; format: in vivo, rat
Excerpt: FIGS. 18E-18F show western blot analysis of tissue (right lung) lysates for expression of various disease marker proteins including p62, BMPR2, LC3B-II, p21, p65, p53, phosphorylated-p53 and phosphorylated-AKT using corresponding monoclonal antibodies.
The accumulation of p62, a protein degraded by autophagy pathways, is indicative of autophagy inhibition.

[2] = test system: bovine HAPASMC; assay: Anti-proliferative efficacy in high-altitude bovine PASMC; format: cell-based; conditions: inherently highly proliferating bovine HAPASMC, 1.5-5.0 μM, time- and concentration-dependent
Procedure: Data represent mean±SD (n=5) repeated over 3 experiments. *p<0.05.
Human or bovine PASMC were treated with varying concentrations of QA (1.5-, 3.1-, and 6.2-μM). Cellular proliferation was measured at day 1, day 3 and day 5 by following the manufacturer's protocol. Briefly, a reagent mix of nucleic acid stain and background suppressor were added in PBS followed by addition of the mix in treatment wells (100 μL/well). The plates were incubated at 37° C./5% CO2 for one hour followed by evaluation of fluorescence at 485 ex/535 em. Proliferation inhibition was analyzed relative to control wells on each time point. Data was averaged from two trials with n=6 for SMC II and one trial of n=4 for SMC III.
In-vitro studies to measure anti-proliferative activity of QA against pulmonary hypertension were performed using primary human PASMC (FIG. 3), primary bovine PASMC (FIG. 4) and high altitude PASMC (HAPASMC) (FIG. 4). HAPASMC, due to prolonged hypoxia exposure, are known to be hyper-proliferative in regular culture conditions, while hyper-proliferation was induced in PASMC cells by 24 hour serum starvation, or by exposure to 5-hydroxytryptamine (5-HT). […]

[3] = test system: Ki67, PCNA, vWF, α-SMA in MCT-induced PAH animal lung tissue; assay: MCT model, immunofluorescence of lung tissue; format: in vivo, rat; conditions: MCT rats
Procedure: FIGS. 12A-12B show immunofluorescence imaging for MCT-induced PAH animal lung tissue slides.
Preclinical in-vivo studies for QA were earlier performed at a dose of 10 mg/kg once-a-day in monocrotaline (MCT) induced therapeutic PAH model. Hemodynamic parameters were collected and lung tissues were also collected and were sectioned for visualizing the impact of QA treatment on various PAH biomarkers in-vivo.
OCT compound embedded Tissue sections for control animals, MCT induced PAH animals and QA treated animals were further subjected to immunofluorescent staining to analyze expression levels of essential molecular markers. Briefly, tissue sections were washed twice with 1×PBS followed by blocking for one hour using a blocking buffer (Cell Signaling Technology, Danvers, MA, USA). Followed by blocking, tissue sections were stained with respective primary antibodies overnight; VWF #ab15419, 1:100 (abcam), α-SMA #489385, 1:500 (CST), Ki67 #9129S (CST), 1:250 and PCNA #2586S (CST), 1:100. Following day, tissue sections were washed with 1×PBS twice followed by incubation with Anti-rabbit IgG (H+L), F(ab′)2 Fragment (Alexa Fluor® 488 Conjugate) #4412S 1:250 (CST) and Anti-mouse IgG (H+L), F(ab′)2 Fragment (Alexa Fluor® 594 Conjugate) #8890S, 1:500 (CST) for one hour. Further, sections were washed with 1×PBS twice and the nuclei were stained with DAPI using Vectashield hardset antifade mounting medium with DAPI (Vector Laboratories, Burlingame, CA, USA). Tissues were imaged using Zeiss Axioplan 2 fluorescence microscope (Carl Zeiss AG, Jena, Germany).
Immunofluorescence imaging of the MCT-induced PAH animal lung tissue slides was also performed.

[4] = test system: serum starved bovine PASMCs; assay: Autophagy inhibition assay, Cyto-ID autophagy detection kit; format: cell-based; conditions: QA 2.5 and 5 μM, 24 hours
Procedure: In FIGS. 9A-9B, PASMC were serum starved for 24 hours, and then treated with varying QA concentrations in serum-starved media. Quantification was performed using Cyto-ID® autophagy kit and Annexin-V/FITC apoptosis kit. […] In FIG. 9C, autophagy inhibition by QA (5 μM) as depicted by increase in LC3B-II concentration in bovine high altitude PASMC quantified by western blot assay kit. Data represent mean±SD (n=3). *p<0.05.
Bovine PASMCs were serum starved in FBS-free media for 24 hours, and then treated with QA for 24 hours at various concentrations (0, 2.5, or 5 μM). Autophagic inhibition (lysosomal fusion with autophagosomes) was measured with Cyto-ID® autophagy detection kit (Enzo Lifesciences Inc., Farmingdale NY) according to manufacturer's manual.
Autophagy inhibition (lysosomal fusion with autophagosomes) by QA was examined. Bovine PASMCs were serum starved in FBS-free media for 24 hours, and then treated with QA (2.5 and 5 μM) for 24 hours. Autophagic inhibition was measured with Cyto-ID® autophagy detection kit. […] QA-induced autophagy inhibition by targeting LC3B-II expression was examined using HAPASMCs.
In other independent experiments, QA's ability to modulate autophagy/apoptotic pathways was quantified in vitro in serum-starved bovine PASMC cells. Similar results were observed.

[5] = test system: IL-6, Acta2, serpinel, Id3, BMPR2 mRNA; assay: SU5416/hypoxia model, mRNA expression by real time PCR; format: in vivo, rat; conditions: SU5416/hypoxia rats
[6] = test system: pulmonary arteries of MCT-induced PAH animals; assay: MCT model, trichrome staining of lung sections and medial wall thickness; format: in vivo, rat; conditions: MCT rats
Excerpt: At the end of treatment period with QA, animals were sacrificed. Chest was surgically opened to expose rat lungs. Lung tissues were collected, and blinded tissues were sectioned by Reveal Bio (San Diego, CA) at 5 μm thickness. 2 tissue sections for each animal were earmarked for Trichrome staining; and 8 more sections were provided blank for custom staining.
Tissue sections were stained using trichrome staining to visualize pulmonary arteries for all treatment and control groups. Stained lung sections were imaged using Zeiss Axio Scope A1 microscope equipped with Axiocam 506 color camera and Zeiss Zen 2.3 software. Medial wall thickness for similar sized pulmonary arteries was measured using a Motic BA210 microscope and measurements were made using Motic Image plus 2.0 software. Five pulmonary artery walls were analyzed per animal (n=2 to 5)
Additionally, lung tissue sections from the MCT-induced PAH lung tissue were examined using trichrome staining.
Medial wall thickness of pulmonary arteries was measured using the trichrome stained microscopic images.

**Q.** How did the “autophagy marker LC3B-II” value ([1]; right lung homogenate) turn out when `CCN(CC)CCCC(C)Nc1c2ccc(Cl)cc2nc2ccc(OC)cc12` (centres unmarked) [QA, quinacrine] was run?
**A.** The value was “accumulated”.

**Q.** What about the “autophagy marker p62” value ([1]; right lung homogenate) of the same compound?
**A.** Its value is “accumulated”.

**Q.** What about the “accumulation of BMPR2” value ([1]; right lung homogenate, in comparison to control animals) of the same compound?
**A.** The value was greater than 2 fold.

**Q.** And the “expression of p21 protein” value ([1]; tissue lysates)?
**A.** The value was “significant increase”.

**Q.** What about the “expression of phospho-AKT” value ([1]; tissue lysates) of the same compound?
**A.** The value was “decreased”.

**Q.** And the “expression of phospho-p65” value ([1]; tissue lysates)?
**A.** Its value is “decreased”.

**Q.** And the p65 ([1]; tissue lysates)?
**A.** Its p65 is “significant reduction”.

**Q.** And the proliferation [2]?
**A.** The proliferation was “significantly inhibits proliferation”.

**Q.** What about the “expression of Ki67” value [3] of the same compound?
**A.** Its value is “reduction in expression”.

**Q.** What about the “expression of PCNA” value [3] of the same compound?
**A.** Its value is “reduction in expression”.

**Q.** And the “expression of vWF” value ([3]; compared to control)?
**A.** Its value is “did not show any reduction in expression”.

**Q.** What about the “expression of α-smooth muscle actin (α-SMA)” value ([3]; compared to control) of the same compound?
**A.** Its value is “did not show any reduction in expression”.

**Q.** And the “accumulation of fluorescent dye in autophagosomes (autophagy inhibition)” value [4]?
**A.** Its value is “significantly enhanced the accumulation”.

**Q.** What about the “BMPR2 mRNA expression” value [5] of the same compound?
**A.** The value was “no significant changes”.

**Q.** What about the “Acta2 gene (smooth muscle actin-alpha) expression” value ([5]; real time PCR) of the same compound?
**A.** Its value is “decreased”.

**Q.** And the “IL-6 mRNA levels” value ([5]; real time PCR)?
**A.** Its value is “decreased”.

**Q.** And the “Id3 mRNA level” value ([5]; real time PCR)?
**A.** Its value is “did not significantly change”.

**Q.** And the “mRNA levels of serpinel” value ([5]; real time PCR)?
**A.** Its value is “reduced”.

**Q.** What about the “medial wall thickness of pulmonary arteries” value ([6]; compared to sham control animals) of the same compound?
**A.** Its value is “back to almost normal”.

**Q.** And the “collagen and muscular deposition in pulmonary arterioles” value ([6]; trichrome staining)?
**A.** The value was “significant reduction”.

From US12714702B2, “Compositions and methods for treating or preventing pulmonary hypertension” (priority 2020, dated 2026)
